Here are results for one compound from ChEMBL document CHEMBL3832026.

A word on the Cmax: it is the maximum level reached in the sampled fluid or tissue. Usually Tmax stands for the time at which the peak concentration occurs. The AUC is the area under the concentration-time curve, a measure of exposure. What is called CL/F is the apparent clearance, not corrected for the fraction that reaches the circulation.

Structures are written as SMILES. Values joined by “and” are separate entries in the source; they are usually repeats but may differ in a detail not shown here. Identical values can stand only once.

Common to all, as to assay type: ADME, organism-based
The nature of series [1]: (§1) Mean pharmacokinetic parameters of Mycophenolic acid following single oral administration of Mycophenolic acid delayed-release tablets to adult or pediatric (age range 5 to 16 years) renal transplant patients on Cyclosporine, USP MODIFIED based immunosuppression. Particulars: human, in vivo. Also noted: dose 450 mg/m-2, dose 1 g, dose 720 mg, route oral.
For series [2], the system named is Homo sapiens. The description is as §1. Also noted: dose 450 mg/m-2, dose 1 g, dose 720 mg, route oral. The settings on record: in vivo.
Series [3] is described as follows: (§2) Mean pharmacokinetic parameters of Mycophenolic acid following multiple dose administration of 720 mg Mycophenolic acid delayed-release tablets to adult renal transplant patients on Cyclosporine, USP MODIFIED based immunosuppression. Also noted: dose 720 mg, route oral. The settings on record: human, in vivo, po, 720 mg.
Series [4] has as its system Homo sapiens. The description is as §2. Also noted: dose 720 mg, route oral. Particulars: in vivo, po.
Series [5] in a line: (§3) Pharmacokinetic parameters of Mycophenolic acid following administration of 360 to 2160 mg Mycophenolic acid delayed-release tablets to renal transplant patients on Cyclosporine, USP MODIFIED based immunosuppression. The settings on record: human, in vivo, po.
Series [6] concerns Homo sapiens. Described as §3. Particulars: in vivo, po.

Regarding `COc1c(C)c2c(c(O)c1C/C=C(\C)CCC(=O)O)C(=O)OC2` [MYCOPHENOLIC ACID], in series [1], the peak level (Cmax) was 36300 ng/mL and the Tmax was 2.5 h. The AUC in series [1] (dosed compound id 90, dosed compound name MYCOPHENOLATE MOFETIL, regimen Single dose, tissue Plasma, read-out: AUC(0-48)) is 42700 ng·h/mL. For the same compound, the AUC in series [1] (read-out: AUC(0 to inf)) is 74300 ng·h/mL. Further, in the series on Homo sapiens [2], the “AUC(0 to inf)” value was 66500 ng·h/mL, the Cmax was 26100 ng/mL and the Tmax turned out to be 2 h. In the series with Homo sapiens [2] (dosed compound id 90, dosed compound name MYCOPHENOLATE MOFETIL, regimen Single dose, tissue Plasma), the “AUC(0-48)” value is 48300 ng·h/mL. Further, in series [3], the time to peak (Tmax) came out at 2 h. Moreover, in the series with Homo sapiens [4], the “AUC(0-12)” value is 57.4 mcg.hr/mL [middle of 6 runs]; the Cmax is 26.2 mcg/mL [middle of 5 runs]; the Tmax is 1.5 h and 2.5 h and 1.8 h. The compound further had a CL/F in series [5] of 140 mL/min. In the series with Homo sapiens [6], this compound registered a Vd of 112 L and a Vss of 54 L.
